Our source for the inhibition and IC50 values is ChEMBL document CHEMBL3351289, “4-Substituted quinazoline derivatives as novel EphA2 receptor tyrosine kinase inhibitors” (Bioorg Med Chem Lett, 2014).

Assay [1] deals with T1, Ephrin type-A receptor 2 (Homo sapiens, UniProt P29317). As to the kind of experiment: Inhibition of EphA2 (unknown origin) at 10 uM pre-incubated with enzyme for 10 mins before adding peptide substrate and ATP using TK-substrate-biotin and SEB by time-resolved fluorescence resonance energy transfer assay.
Assay [2] concerns the target Mitogen-activated protein kinase 8 (Homo sapiens) (UniProt P45983). The experiment in a line: Inhibition of JNK1 (unknown origin) at 1 uM.
Assay [3] addresses Glycogen synthase kinase-3 beta (Homo sapiens) (UniProt P49841). The experiment in a line: Inhibition of GSK3beta (unknown origin) at 1 uM.
For assay [4], the target named is Vascular endothelial growth factor receptor 2 (Homo sapiens) (UniProt P35968). As to the kind of experiment: Inhibition of KDR (unknown origin) at 1 uM.
Assay [5] has as its target T1, Ephrin type-A receptor 2. As to the kind of experiment: Inhibition of EphA2 (unknown origin) pre-incubated with enzyme for 10 mins before adding peptide substrate and ATP using TK-substrate-biotin and SEB by time-resolved fluorescence resonance energy transfer assay.
The target of assay [6] is T1, Ephrin type-A receptor 2. As to the kind of experiment: Inhibition of EphA2 (unknown origin) expressed in […] cells assessed as reduction in wound closure after 72 hrs by phase contrast microscopy based would healing assay. It counts as cell-based.
In assay [7] the target is Platelet-derived growth factor receptor alpha (Homo sapiens) (UniProt P16234). The experiment in a line: Inhibition of PDGFRalpha (unknown origin) at 1 uM.
Assay [8] deals with Insulin-like growth factor 1 receptor (Homo sapiens) (UniProt P08069). As to the kind of experiment: Inhibition of IGF1R (unknown origin) at 1 uM.
Assay [9] addresses Insulin receptor (Homo sapiens) (UniProt P06213). The experiment in a line: Inhibition of InsR (unknown origin) at 1 uM.
Assay [10] addresses Epidermal growth factor receptor (Homo sapiens) (UniProt P00533). As to the kind of experiment: Inhibition of EGFR (unknown origin) at 1 uM.
The target in assay [11] is Mitogen-activated protein kinase 10 (Homo sapiens) (UniProt P53779). As to the kind of experiment: Inhibition of JNK3 (unknown origin) at 1 uM.
The target in assay [12] is Mitogen-activated protein kinase 1 (Homo sapiens) (UniProt P28482). As to the kind of experiment: Inhibition of ERK2 (unknown origin) at 1 uM.
Assay [13] has as its target Mitogen-activated protein kinase 11 (Homo sapiens) (UniProt Q15759). The experiment in a line: Inhibition of p38beta (unknown origin) at 1 uM.
The target in assay [14] is Receptor tyrosine-protein kinase erbB-2 (Homo sapiens) (UniProt P04626). The experiment in a line: Inhibition of HER2 (unknown origin) at 1 uM.
For assay [15], the target named is Mitogen-activated protein kinase 14 (Homo sapiens) (UniProt Q16539). The experiment in a line: Inhibition of p38alpha (unknown origin) at 1 uM.

SMILES strings stand for the structures.

T1 sequence (P29317 whole entry): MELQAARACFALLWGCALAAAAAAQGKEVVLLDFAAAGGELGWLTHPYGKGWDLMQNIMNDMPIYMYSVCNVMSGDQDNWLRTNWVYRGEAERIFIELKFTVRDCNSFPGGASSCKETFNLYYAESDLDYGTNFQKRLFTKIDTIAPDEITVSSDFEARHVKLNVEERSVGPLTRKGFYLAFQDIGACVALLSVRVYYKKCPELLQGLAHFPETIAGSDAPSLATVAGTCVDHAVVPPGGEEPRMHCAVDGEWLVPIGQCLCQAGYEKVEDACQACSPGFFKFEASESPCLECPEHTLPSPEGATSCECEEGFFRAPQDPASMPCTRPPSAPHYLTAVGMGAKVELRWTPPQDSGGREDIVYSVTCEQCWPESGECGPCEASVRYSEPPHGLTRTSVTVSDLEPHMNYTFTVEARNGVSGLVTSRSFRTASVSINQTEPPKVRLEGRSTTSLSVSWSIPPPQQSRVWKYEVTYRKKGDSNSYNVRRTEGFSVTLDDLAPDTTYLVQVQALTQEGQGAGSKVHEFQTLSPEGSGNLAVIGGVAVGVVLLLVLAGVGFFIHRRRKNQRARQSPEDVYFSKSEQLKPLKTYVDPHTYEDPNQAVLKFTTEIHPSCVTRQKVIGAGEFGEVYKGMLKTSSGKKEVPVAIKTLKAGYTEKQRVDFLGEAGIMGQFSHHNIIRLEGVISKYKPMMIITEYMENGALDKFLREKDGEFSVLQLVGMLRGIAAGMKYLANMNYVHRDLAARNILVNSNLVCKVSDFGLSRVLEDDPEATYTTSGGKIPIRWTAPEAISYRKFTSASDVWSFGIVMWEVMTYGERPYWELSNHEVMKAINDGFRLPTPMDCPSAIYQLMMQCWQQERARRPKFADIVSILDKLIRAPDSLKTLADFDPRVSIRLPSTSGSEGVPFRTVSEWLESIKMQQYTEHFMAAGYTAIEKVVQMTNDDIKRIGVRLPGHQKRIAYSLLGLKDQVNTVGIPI
Chain of Mitogen-activated protein kinase 11 (Homo sapiens) (Q15759 whole entry): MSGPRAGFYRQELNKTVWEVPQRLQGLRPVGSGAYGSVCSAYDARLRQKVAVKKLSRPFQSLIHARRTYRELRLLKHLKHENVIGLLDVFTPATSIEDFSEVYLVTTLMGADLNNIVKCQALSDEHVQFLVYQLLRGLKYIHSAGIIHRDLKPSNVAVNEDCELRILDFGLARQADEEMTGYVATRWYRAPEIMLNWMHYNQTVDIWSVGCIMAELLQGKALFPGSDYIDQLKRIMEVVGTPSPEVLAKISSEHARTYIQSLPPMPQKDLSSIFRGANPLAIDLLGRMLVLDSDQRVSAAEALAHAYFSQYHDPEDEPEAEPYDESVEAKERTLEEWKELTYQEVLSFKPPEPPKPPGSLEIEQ
Chain of Platelet-derived growth factor receptor alpha (Homo sapiens) (P16234 whole entry): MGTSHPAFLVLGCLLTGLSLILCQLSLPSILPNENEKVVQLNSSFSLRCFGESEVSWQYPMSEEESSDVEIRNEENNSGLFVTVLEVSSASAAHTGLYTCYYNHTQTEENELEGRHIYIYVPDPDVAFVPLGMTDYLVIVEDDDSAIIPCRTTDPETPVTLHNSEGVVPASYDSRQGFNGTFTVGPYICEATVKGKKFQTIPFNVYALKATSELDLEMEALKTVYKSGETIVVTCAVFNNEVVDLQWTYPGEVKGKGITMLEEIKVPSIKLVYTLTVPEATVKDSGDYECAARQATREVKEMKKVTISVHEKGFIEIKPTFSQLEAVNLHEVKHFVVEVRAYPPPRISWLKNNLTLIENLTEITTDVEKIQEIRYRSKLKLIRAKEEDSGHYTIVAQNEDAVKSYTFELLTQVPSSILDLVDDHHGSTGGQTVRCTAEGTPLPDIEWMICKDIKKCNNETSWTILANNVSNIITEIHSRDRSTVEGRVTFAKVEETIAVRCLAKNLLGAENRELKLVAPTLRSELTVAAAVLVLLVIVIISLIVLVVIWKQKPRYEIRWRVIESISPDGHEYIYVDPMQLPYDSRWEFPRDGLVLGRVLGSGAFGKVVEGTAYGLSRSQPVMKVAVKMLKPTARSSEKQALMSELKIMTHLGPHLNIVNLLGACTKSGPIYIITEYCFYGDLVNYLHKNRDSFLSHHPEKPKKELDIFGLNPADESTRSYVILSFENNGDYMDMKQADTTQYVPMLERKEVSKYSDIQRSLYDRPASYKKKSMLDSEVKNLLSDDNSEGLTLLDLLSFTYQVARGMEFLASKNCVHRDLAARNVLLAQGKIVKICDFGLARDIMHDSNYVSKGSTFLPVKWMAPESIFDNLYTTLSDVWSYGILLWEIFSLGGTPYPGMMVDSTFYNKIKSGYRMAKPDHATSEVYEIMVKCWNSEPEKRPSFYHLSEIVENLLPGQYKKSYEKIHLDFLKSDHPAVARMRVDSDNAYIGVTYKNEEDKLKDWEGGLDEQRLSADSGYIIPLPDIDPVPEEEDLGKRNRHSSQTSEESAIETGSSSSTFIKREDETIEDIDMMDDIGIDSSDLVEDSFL
Chain of Receptor tyrosine-protein kinase erbB-2 (Homo sapiens) (P04626 whole entry): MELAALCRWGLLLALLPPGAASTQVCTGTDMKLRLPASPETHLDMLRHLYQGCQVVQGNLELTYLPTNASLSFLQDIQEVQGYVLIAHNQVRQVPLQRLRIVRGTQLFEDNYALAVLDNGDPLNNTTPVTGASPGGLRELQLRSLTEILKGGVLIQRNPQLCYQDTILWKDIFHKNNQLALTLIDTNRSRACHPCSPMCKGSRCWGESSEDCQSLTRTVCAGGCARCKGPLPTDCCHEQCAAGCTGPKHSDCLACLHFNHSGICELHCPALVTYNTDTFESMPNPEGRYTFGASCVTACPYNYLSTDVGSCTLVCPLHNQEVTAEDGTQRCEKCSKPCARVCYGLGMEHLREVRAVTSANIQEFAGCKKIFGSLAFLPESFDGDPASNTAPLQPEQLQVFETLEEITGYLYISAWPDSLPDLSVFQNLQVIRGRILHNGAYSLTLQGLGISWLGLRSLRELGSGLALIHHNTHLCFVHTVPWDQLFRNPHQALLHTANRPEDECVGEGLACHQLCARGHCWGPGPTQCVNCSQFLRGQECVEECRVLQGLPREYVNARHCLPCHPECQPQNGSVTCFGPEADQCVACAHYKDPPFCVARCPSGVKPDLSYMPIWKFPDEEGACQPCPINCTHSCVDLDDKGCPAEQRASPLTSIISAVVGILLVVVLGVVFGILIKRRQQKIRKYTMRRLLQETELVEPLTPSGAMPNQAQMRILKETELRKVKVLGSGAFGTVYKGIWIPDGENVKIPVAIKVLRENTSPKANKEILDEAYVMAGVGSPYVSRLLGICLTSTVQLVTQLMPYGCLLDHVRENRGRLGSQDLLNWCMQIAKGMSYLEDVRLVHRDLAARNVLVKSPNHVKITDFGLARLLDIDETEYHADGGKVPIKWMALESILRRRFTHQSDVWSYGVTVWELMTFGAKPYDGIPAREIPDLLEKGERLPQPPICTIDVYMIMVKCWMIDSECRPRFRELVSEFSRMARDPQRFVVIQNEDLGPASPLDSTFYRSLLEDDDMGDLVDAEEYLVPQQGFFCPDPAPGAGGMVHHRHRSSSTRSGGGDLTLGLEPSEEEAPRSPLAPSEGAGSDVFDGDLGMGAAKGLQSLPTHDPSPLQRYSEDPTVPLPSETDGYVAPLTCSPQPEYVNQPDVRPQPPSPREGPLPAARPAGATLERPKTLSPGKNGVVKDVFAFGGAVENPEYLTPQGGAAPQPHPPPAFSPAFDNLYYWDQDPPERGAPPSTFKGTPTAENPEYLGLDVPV
Chain of Mitogen-activated protein kinase 8 (Homo sapiens) (P45983 whole entry): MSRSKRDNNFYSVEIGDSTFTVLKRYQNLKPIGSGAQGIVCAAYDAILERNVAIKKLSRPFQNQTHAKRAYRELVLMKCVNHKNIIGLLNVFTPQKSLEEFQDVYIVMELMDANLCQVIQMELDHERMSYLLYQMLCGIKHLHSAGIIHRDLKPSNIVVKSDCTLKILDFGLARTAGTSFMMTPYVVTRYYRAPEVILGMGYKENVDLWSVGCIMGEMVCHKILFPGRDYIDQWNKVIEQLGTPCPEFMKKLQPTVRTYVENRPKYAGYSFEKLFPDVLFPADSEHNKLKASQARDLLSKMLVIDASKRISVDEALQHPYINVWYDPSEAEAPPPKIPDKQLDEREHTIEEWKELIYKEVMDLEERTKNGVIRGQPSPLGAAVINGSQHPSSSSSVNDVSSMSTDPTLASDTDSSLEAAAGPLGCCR
Chain of Glycogen synthase kinase-3 beta (Homo sapiens) (P49841 whole entry, looked up): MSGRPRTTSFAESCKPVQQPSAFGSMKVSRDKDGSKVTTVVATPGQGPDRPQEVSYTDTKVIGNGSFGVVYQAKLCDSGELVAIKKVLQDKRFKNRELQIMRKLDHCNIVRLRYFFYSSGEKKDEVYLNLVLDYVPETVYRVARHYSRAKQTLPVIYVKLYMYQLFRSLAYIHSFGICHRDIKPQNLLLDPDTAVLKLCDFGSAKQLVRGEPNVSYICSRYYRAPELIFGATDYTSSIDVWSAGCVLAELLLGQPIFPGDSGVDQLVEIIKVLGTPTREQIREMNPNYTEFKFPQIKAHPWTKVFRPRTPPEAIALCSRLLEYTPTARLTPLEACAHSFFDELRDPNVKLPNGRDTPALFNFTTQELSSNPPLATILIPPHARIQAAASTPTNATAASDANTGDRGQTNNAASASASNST
Chain of Mitogen-activated protein kinase 14 (Homo sapiens) (Q16539 whole entry): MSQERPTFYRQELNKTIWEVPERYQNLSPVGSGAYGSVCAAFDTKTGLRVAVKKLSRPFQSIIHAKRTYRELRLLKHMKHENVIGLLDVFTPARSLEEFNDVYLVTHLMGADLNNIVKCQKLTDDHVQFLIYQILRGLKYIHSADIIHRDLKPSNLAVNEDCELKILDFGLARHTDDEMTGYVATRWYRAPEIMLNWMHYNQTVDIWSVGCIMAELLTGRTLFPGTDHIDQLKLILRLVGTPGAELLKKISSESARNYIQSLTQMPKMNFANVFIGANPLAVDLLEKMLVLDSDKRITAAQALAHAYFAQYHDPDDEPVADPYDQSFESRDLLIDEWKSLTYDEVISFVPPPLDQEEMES

As for `CCCc1ccc(Nc2ncnc3cc(OCC4CNCCO4)c(OC)cc23)cc1` (stereo not given), on Ephrin type-A receptor 2 [1], the inhibition came out at 49%.
In the case of `COc1cc2c(Nc3ccc(Cl)cc3F)ncnc2cc1OCC1CNCCO1` (stereo not given), the inhibition in assay [2] is 0%; in assay [3], 11%; in assay [4], 76%; at Ephrin type-A receptor 2 [6] it was “Dose-dependent effect”; in assay [7], 17%; in assay [8] it was 7%. Moreover, the inhibition was 15% in assay [9]; 100% in assay [10]; 0% in [11]; 0% in assay [12]; 2% in [13]; 22% in assay [14]. This molecule also returned an inhibition in assay [15] of 16%. Also, half-maximal inhibition against Ephrin type-A receptor 2 [5] (IC50) was put at 160 nM.
